{"source": "DBAASP", "assay_in_all_cases": "≥ marks a high value that may be exact or a test limit, other limits are often not marked, values filed in µg/mL are converted to µM", "key": {"[1]": {"system": "Klebsiella pneumoniae ATCC 27736"}, "[2]": {"system": "Pseudomonas aeruginosa ATCC 10662"}, "Staphylococcus aureus": {"system": "Staphylococcus aureus"}, "[3]": {"system": "Pseudomonas aeruginosa ATCC BAA-427"}, "Acinetobacter baumannii": {"system": "Acinetobacter baumannii"}, "[4]": {"system": "Bacillus subtilis ATCC 6633"}, "[5]": {"system": "Staphylococcus epidermidis ATCC 1435"}, "Candida albicans": {"system": "Candida albicans"}, "Candida tropicalis": {"system": "Candida tropicalis"}, "Candida glabrata": {"system": "Candida glabrata"}, "[6]": {"system": "Staphylococcus aureus ATCC 25923"}, "Bacillus subtilis 168": {"system": "Bacillus subtilis 168"}, "Staphylococcus aureus 1": {"system": "Staphylococcus aureus 1"}, "[7]": {"system": "Candida albicans F7-39/IDE99"}, "[8]": {"system": "Staphylococcus epidermidis"}, "[9]": {"system": "Staphylococcus aureus ATCC 43300"}, "[10]": {"system": "Pseudomonas aeruginosa ATCC 27853"}, "Pseudomonas aeruginosa": {"system": "Pseudomonas aeruginosa"}, "[11]": {"system": "Micrococcus luteus CCM 144"}, "Escherichia coli B": {"system": "Escherichia coli B"}, "Escherichia coli O111": {"system": "Escherichia coli O111"}, "[12]": {"system": "Staphylococcus aureus FDA 209P"}, "[13]": {"system": "Escherichia coli ATCC 25922"}, "[14]": {"system": "Streptococcus mutans UA159"}, "[15]": {"system": "Streptococcus sanguinis ATCC 10556"}, "[16]": {"system": "Streptococcus sobrinus ATCC 6715"}, "Escherichia coli AS1.349": {"system": "Escherichia coli AS1.349"}, "[17]": {"system": "Enterococcus faecalis CGMCC 1.595"}, "[18]": {"system": "Pseudomonas aeruginosa CGMCC 1.860"}, "Bacillus cereus AS1.126": {"system": "Bacillus cereus AS1.126"}, "[19]": {"system": "Lactococcus lactis AS1.1690"}, "[20]": {"system": "Enterococcus faecium CGMCC 1.2334"}, "[21]": {"system": "Staphylococcus aureus AS1.72"}, "[22]": {"system": "Cronobacter sakazakii DPC 6440"}, "[23]": {"system": "Listeria monocytogenes LO28"}}, "data": [{"smiles": "CC[C@H](C)[C@H](NC(=O)[C@H](Cc1cnc[nH]1)NC(=O)[C@H](Cc1cnc[nH]1)NC(=O)[C@H](Cc1ccccc1)NC(=O)[C@@H](N)Cc1ccccc1)C(=O)N[C@@H](Cc1ccccc1)C(=O)N[C@@H](CCCN=C(N)N)C(=O)NCC(=O)N[C@@H](C)C(=O)N[C@H](C(=O)N[C@@H](Cc1cnc[nH]1)C(=O)N[C@H](C(=O)NCC(=O)N[C@@H](CCCCN)C(=O)N[C@H](C(=O)N[C@H](C(=O)N[C@@H](Cc1cnc[nH]1)C(=O)N[C@@H](CCCN=C(N)N)C(=O)N[C@@H](CC(C)C)C(=O)N[C@H](C(=O)N[C@H](C(=O)NCC(N)=O)[C@@H](C)O)C(C)C)[C@@H](C)CC)[C@@H](C)O)C(C)C)C(C)C", "note": "[FFHHIFRGAVHVGKTIHRLVTG]", "values": [{"measurement": "MIC", "setting": "[1]", "value": 6, "unit": "µM"}, {"measurement": "MIC", "setting": "[2]", "value": 9.88, "unit": "µM"}, {"measurement": "MIC", "setting": "Staphylococcus aureus", "value": 1.23, "unit": "µM"}, {"measurement": "MIC", "setting": "[3]", "value": 10, "unit": "µM"}, {"measurement": "MIC", "setting": "Acinetobacter baumannii", "value": 1.23, "unit": "µM"}, {"measurement": "MIC", "setting": "[4]", "value": 8, "unit": "µM"}, {"measurement": "MIC", "setting": "[5]", "value": 0.593, "unit": "µM"}]}, {"smiles": "CC(C)C[C@H](NC(=O)[C@H](CC(N)=O)NC(=O)[C@H](CCCN=C(N)N)NC(=O)[C@H](Cc1ccccc1)NC(=O)[C@@H](N)Cc1ccccc1)C(=O)N[C@@H](Cc1c[nH]c2ccccc12)C(=O)N[C@@H](CCCCN)C(=O)NCC(=O)N[C@@H](C)C(=O)N[C@@H](CCCCN)C(=O)N[C@@H](C)C(=O)N[C@@H](C)C(=O)N[C@@H](Cc1ccccc1)C(=O)N[C@@H](CCCN=C(N)N)C(=O)N[C@@H](C)C(=O)NCC(=O)N[C@@H](Cc1cnc[nH]1)C(=O)N[C@@H](C)C(=O)N[C@@H](C)C(=O)N[C@@H](Cc1c[nH]c2ccccc12)C(=O)N[C@@H](CCCN=C(N)N)C(=O)N[C@@H](C)C(=O)O", "note": "[FFRNLWKGAKAAFRAGHAAWRA]", "values": [{"measurement": "MIC", "setting": "Candida albicans", "value": 2.47, "unit": "µM"}, {"measurement": "MIC", "setting": "[2]", "value": 19.7, "unit": "µM"}, {"measurement": "MIC", "setting": "Candida tropicalis", "value": 2.47, "unit": "µM"}, {"measurement": "MIC", "setting": "Staphylococcus aureus", "value": 1.23, "unit": "µM"}, {"measurement": "MIC", "setting": "Candida glabrata", "value": "≥ 39.5", "unit": "µM"}, {"measurement": "MIC", "setting": "Acinetobacter baumannii", "value": 2.47, "unit": "µM"}, {"measurement": "MIC", "setting": "[6]", "value": 1.23, "unit": "µM"}, {"measurement": "MIC", "setting": "[5]", "value": 0.616, "unit": "µM"}]}, {"smiles": "CC[C@H](C)[C@H](NC(=O)CN)C(=O)N[C@@H](CCSC)C(=O)N[C@@H](CO)C(=O)N[C@@H](CO)C(=O)N[C@@H](CC(C)C)C(=O)N[C@@H](CCSC)C(=O)N[C@@H](CCCCN)C(=O)N[C@@H](CCCCN)C(=O)N[C@@H](CC(C)C)C(=O)N[C@@H](C)C(=O)N[C@@H](CCCCN)C(=O)N[C@H](C(=O)N[C@H](C(=O)N[C@@H](C)C(=O)N[C@@H](CCCCN)C(N)=O)[C@@H](C)CC)[C@@H](C)CC", "note": "[GIMSSLMKKLAKIIAK]", "values": [{"measurement": "MIC", "setting": "Bacillus subtilis 168", "value": 7, "unit": "µM"}, {"measurement": "MIC", "setting": "Staphylococcus aureus 1", "value": 5.2, "unit": "µM"}, {"measurement": "MIC", "setting": "[7]", "value": 11, "unit": "µM"}, {"measurement": "MIC", "setting": "Staphylococcus aureus", "value": 10, "unit": "µM"}, {"measurement": "MIC", "setting": "[8]", "value": 5, "unit": "µM"}, {"measurement": "MIC", "setting": "[9]", "value": 9, "unit": "µM"}, {"measurement": "MIC", "setting": "[10]", "value": 4.5, "unit": "µM"}, {"measurement": "MIC", "setting": "Pseudomonas aeruginosa", "value": 9.3, "unit": "µM"}, {"measurement": "MIC", "setting": "[11]", "value": 3, "unit": "µM"}, {"measurement": "MIC", "setting": "Escherichia coli B", "value": 3.7, "unit": "µM"}]}, {"smiles": "CC[C@H](C)[C@H](NC(=O)[C@@H](NC(=O)CN)C(C)C)C(=O)N[C@H](C(=O)N[C@@H](CC(=O)O)C(=O)N[C@@H](C)C(=O)N[C@@H](CC(C)C)C(=O)N[C@@H](CCCCN)C(=O)NCC(=O)N[C@@H](C)C(=O)N[C@@H](C)C(=O)N[C@@H](CCCCN)C(=O)N[C@H](C(=O)N[C@H](C(=O)N[C@@H](C)C(=O)N[C@@H](C)C(=O)N[C@@H](CCC(=O)O)C(=O)N[C@@H](CC(C)C)C(=O)N[C@@H](CC(C)C)C(=O)N[C@@H](CCCN=C(N)N)C(=O)N[C@@H](CCCCN)C(=O)N[C@@H](C)C(=O)N[C@@H](Cc1cnc[nH]1)C(=O)N[C@H]1CSSC[C@@H](C(=O)O)NC(=O)[C@H](CO)NC(=O)[C@H](CC(N)=O)NC(=O)[C@H]([C@@H](C)O)NC(=O)[C@H](CC(C)C)NC(=O)[C@H](CCCCN)NC1=O)C(C)C)[C@@H](C)O)[C@@H](C)O", "note": "[GVITDALKGAAKTVAAELLRKAHCKLTNSC]", "values": [{"measurement": "MIC", "setting": "Escherichia coli O111", "value": 2.66, "unit": "µM"}, {"measurement": "MIC", "setting": "[12]", "value": 5.35, "unit": "µM"}, {"measurement": "MIC", "setting": "[13]", "value": 2.66, "unit": "µM"}, {"measurement": "MIC", "setting": "[4]", "value": 20.8, "unit": "µM"}]}, {"smiles": "CC(C)[C@H](NC(=O)[C@H](CCCCN)NC(=O)[C@H](C)NC(=O)[C@H](C)NC(=O)[C@H](CCCCN)NC(=O)[C@H](CCCCN)NC(=O)[C@H](Cc1ccccc1)NC(=O)[C@H](Cc1ccccc1)NC(=O)[C@H](CCCCN)NC(=O)[C@H](CCCCN)NC(=O)[C@H](Cc1c[nH]c2ccccc12)NC(=O)CN)C(=O)NCC(=O)N[C@@H](CCCCN)C(=O)O", "note": "[GWKKFFKKAAKVGK]", "values": [{"measurement": "MIC", "setting": "[14]", "value": "≥ 315", "unit": "µM"}, {"measurement": "MIC", "setting": "[15]", "value": "≥ 315", "unit": "µM"}, {"measurement": "MIC", "setting": "[16]", "value": "≥ 315", "unit": "µM"}]}, {"smiles": "NC(N)=NCCC[C@H](NC(=O)[C@H](Cc1cnc[nH]1)NC(=O)[C@H](Cc1c[nH]c2ccccc12)NC(=O)[C@H](Cc1ccccc1)NC(=O)[C@H](CCCN=C(N)N)NC(=O)[C@@H](N)CCCN=C(N)N)C(=O)O", "note": "[RRFWHR]", "values": [{"measurement": "MIC", "setting": "Escherichia coli AS1.349", "value": "≥ 100", "unit": "µM"}, {"measurement": "MIC", "setting": "[17]", "value": "≥ 100", "unit": "µM"}, {"measurement": "MIC", "setting": "[18]", "value": "≥ 100", "unit": "µM"}, {"measurement": "MIC", "setting": "Bacillus cereus AS1.126", "value": "≥ 100", "unit": "µM"}, {"measurement": "MIC", "setting": "[19]", "value": "≥ 100", "unit": "µM"}, {"measurement": "MIC", "setting": "[20]", "value": "≥ 100", "unit": "µM"}, {"measurement": "MIC", "setting": "[21]", "value": "≥ 100", "unit": "µM"}]}, {"smiles": "NCCCC[C@H](NC(=O)CNC(=O)[C@H](Cc1ccccc1)NC(=O)[C@H](CCCCN)NC(=O)[C@H](Cc1ccccc1)NC(=O)[C@H](Cc1ccccc1)NC(=O)[C@H](CCCCN)NC(=O)[C@H](CCCCN)NC(=O)[C@H](Cc1ccccc1)NC(=O)[C@H](Cc1ccccc1)NC(=O)[C@H](CCCCN)NC(=O)CNC(=O)[C@@H](N)Cc1c[nH]c2ccccc12)C(=O)O", "note": "[WGKFFKKFFKFGK]", "values": [{"measurement": "MIC", "setting": "[14]", "value": 18.9, "unit": "µM"}, {"measurement": "MIC", "setting": "[15]", "value": 18.9, "unit": "µM"}, {"measurement": "MIC", "setting": "[16]", "value": 18.9, "unit": "µM"}]}, {"smiles": "CC[C@H](C)[C@H](NC(=O)[C@@H](N)Cc1c[nH]c2ccccc12)C(=O)N[C@@H](CCC(N)=O)C(=O)N1CCC[C@H]1C(=O)N[C@@H](CCCCN)C(=O)N[C@H](C(=O)N[C@@H](CCCCN)C(=O)N[C@H](C(=O)N[C@@H](C)C(=O)N1CCC[C@H]1C(=O)N[C@@H](Cc1ccc(O)cc1)C(=O)N[C@H](C(=O)N[C@@H](CCCN=C(N)N)C(=O)N[C@@H](Cc1ccc(O)cc1)C(=O)N[C@@H](CC(C)C)C(=O)O)C(C)C)C(C)C)[C@@H](C)O", "note": "[WIQPKTKVAPYVRYL]", "values": [{"measurement": "MIC", "setting": "[22]", "value": "≥ 78.1", "unit": "µM"}, {"measurement": "MIC", "setting": "[23]", "value": 19.5, "unit": "µM"}]}, {"smiles": "CC[C@H](C)[C@H](NC(=O)[C@@H](N)Cc1c[nH]c2ccccc12)C(=O)N[C@@H](CCC(N)=O)C(=O)N1CCC[C@H]1C(=O)N[C@@H](CCCCN)C(=O)N[C@H](C(=O)N[C@@H](CCCCN)C(=O)N[C@H](C(=O)N[C@H](C(=O)N1CCC[C@H]1C(=O)N[C@@H](C)C(=O)N[C@H](C(=O)N[C@@H](CCCN=C(N)N)C(=O)N[C@@H](Cc1ccc(O)cc1)C(=O)N[C@@H](CC(C)C)C(=O)O)C(C)C)[C@@H](C)CC)C(C)C)[C@@H](C)O", "note": "[WIQPKTKVIPAVRYL]", "values": [{"measurement": "MIC", "setting": "[22]", "value": "≥ 78.1", "unit": "µM"}, {"measurement": "MIC", "setting": "[23]", "value": "≥ 39.1", "unit": "µM"}]}]}
